The text below walks through data of US20020111360A1, “Quinazoline formulations and therapeutic use thereof” (PARKER HUGHES INSTITUTE, priority 1999, published 2002).

The structures appear in SMILES notation. Where a name gives a salt, the structure may show the parent alone.

Format in all cases: physicochemical
Data set [1] in a line: Solubilization of WHI-P131 in microemulsions. Conditions: microemulsion formulation vs free base in water.
Source text: A series of ternary phase diagrams were constructed at room temperature, and several microemulsions within the single phase microemulsion region were examined for their capacity to solubilize WHI-P131. […] In this phase diagram, it can be seen that microemulsions containing up to 30% of Captex 300 were possible. These microemulsions were transparent and tolerated dilution very well when mixed with aqueous phases. In WHI-P131-containing microemulsions, the drug was first solubilized in the microemulsions chosen from the one phase region of the phase diagram with mild heating, followed by dilution with water or buffer solution at room temperature.
The microemulsion composition ME1 depicted in Table 9 was used in pharmacokinetic studies and biological activity assays. This microemulsion was prepared by first solubilizing WHI-P131 in composition A in the ternary phase diagram, followed by a dilution with water (1:9). […] ME2 was a microemulsion composition obtained from a separate phase diagram not shown. […] These microemulsions can readily be filtered through 0.2 μm filter, and stored at room temperature.
Data set [2] is described as follows: Solubilization of WHI-P131 in water-cosolvent mixtures and micellar solutions. Conditions: for Solubility: aqueous with cosolvent or surfactant or cyclodextrin. On the procedure:
To further determine the effect of cosolvents on the solubility behavior of WHI-P131, the solubility of WHI-P131 chloride salt was carried out in binary mixtures of water-cosolvents. Solvents including ethanol, propylene glycol, and PEGs are used in several injectable formulations, and were considered here as possible vehicles for WHI-P131. […] However, at PEG concentrations greater than 70%, there was a large difference between the solubility behavior of WHI-P131 in water-PEG300 and water-PEG200 mixtures. For PEG300, the solubility continued to increase linearly with increasing PEG concentration, whereas for PEG200, a large increase in slopes occurred near 100% PEG200. Since the solubility-PEG300 concentration curve is linear over the entire range of water-PEG300 mixtures, WHI-P131 solubilized in these mixtures at concentrations below its saturation point can be used as vehicles for this compound, since their dilution will not result in drug precipitation. […] Therefore, PEG300 is more appropriate for use as a cosolvent vehicle in the formulations of WHI-P131.
Micellar solutions containing PEGylated phosphatidylethanolamines were exceptionally effective in enhancing the solubilization of WHI-P131. […] Micellar solutions using purified soya lecithin (Phospholipon 90G) were feasible when an equal or higher amount of a nonionic surfactant (such as Cremophor EL for example) was also present. With PEGylated phospholipids, the presence of Cremophor EL was not necessary to form micellar solutions. In addition, an anionic PEGylated phosphatidylethanolamine seemed to be a better solubilizer for WHI-P131 than Phospholipon (mostly phosphotidylcholine). The enhanced solubilization observed with micellar solutions was apparently due to the charge interaction between the cationic WHI-P131 and anionic PEGylated phosphatidylethanolamine.
To determine the solubilization enhancement by different types of surfactants in a more quantitative manner, solubility-surfactant concentration curves were plotted. FIG. 2 depicts the amount of solubilized WHI-P131 chloride in a solution containing 20% of PEG300, and an increasing amount of PEG2000-DPPE. […] At low surfactant concentrations (below the CMC), the drug solubilization seems to remain unchanged, then increases linearily with surfactant concentration at higher PEG2000-DPPE concentration. […] In Table 8, the slopes of the linear portions of the plot for a series of nonionic surfactants and cosolvents were used to calculate the solubilization enhancement per unit surfactant or cosolvent concentration.
The solubilization enhancement, as represented by the amount of solubilized WHI-P131 (in milligram) per gram of surfactant, are shown in Table 8 to vary with the type of surfactants used. For the three PEGylated phosphatidylethanolamines, the solubilization enhancement depended on the hydrophobic chain length and polyoxyethylene number of the PEGylated phospholipids. […] Also shown in Table 8 for comparison purposes are the solubilization enhancements produced by the use of cosolvents.

Data set [3] can be described thus: Solubility of WHI-P131 free base and chloride salt in various liquids. On the procedure:
The solubility of WHI-P131 free base was measured in water, propylene glycol, polyethylene glycols (PEGs), ethanol, and triglycerides. The solubility of WHI-P131 is very poor in water. It was about 35 times more soluble in C8-C10 medium chain triglyceride (Captex 300) than in water. It was much more soluble in ethanol and hydrophilic cosolvents such as propylene glycol and PEGs.
Parallel solubility measurements were also carried out using WHI-P131 chloride salt. […] In contrast, the solubility of WHI-P131 chloride decreased drastically in all other liquids. […] This fact underscores the importance of knowing the solubility profile of both the free base and salt forms of an ionizable compound when making choices of its delivery vehicles.

As to `COc1cc2ncnc(Nc3ccc(O)cc3)c2cc1OC` [WHI-P131, 4-(4′-Hydroxylphenyl)-amino-6,7-dimethoxyquinazoline], the Total solubilization enhancement is listed as 110 fold in data set [1] and 190 fold in data set [2] (cosolvent/micellar solution vs free base in water). Moreover, the Solubility in data set [2] (20% PEG300 plus 3% PEG2000-DPPE micellar solution, chloride salt, 20% PEG300 plus 3% PEG2000-DPPE, read-out: Drug solubilization in cosolvent/micellar vehicle) was 4700 µg/mL; in data set [3] (Water) it was “very poor”. The “Solubilized WHI-P131 (mg) per gram of surfactant or solvent” value in data set [2] (PEG200, Cosolvent) is on record as 5.3 mg per gram; in data set [2] (PEG300, Cosolvent), 5.8 mg per gram; in data set [2] (PEG400, Cosolvent) it was 6.2 mg per gram; in data set [2] (PEG2000-PE (14:0), Micellar solution), 76.6 mg per gram; in data set [2] (PEG2000-PE (16:0), Micellar solution), 92.0 mg per gram; in data set [2] (PEG5000-PE (18:0), Micellar solution), 37.5 mg per gram. Moreover, the “Solubilized WHI-P131 (mg) per gram of surfactant or solvent” value in data set [2] (Pluronic F-68, Micellar solution) amounted to 6.1 mg per gram. For the same compound, the “Solubility in 20% PEG300” value in data set [2] (chloride salt, 20% PEG300, no surfactant) is 2200 µg/mL. For the same compound, in data set [3] (Captex 300 vs water), the “Solubility in C8-C10 medium chain triglyceride (Captex 300) relative to water” value is listed as “about 35 times”.

Consider `COc1cc2ncnc(Nc3ccc(O)cc3)c2cc1OC` [WHI-P131 Chloride salt, 4-(4′-Hydroxylphenyl)-amino-6,7-dimethoxyquinazoline], for which the Solubility in data set [2] (20% PEG300 in water, chloride salt, 20% PEG300, no surfactant, read-out: Solubility in 20% PEG300) was found to be 2380 µg/mL; in data set [3] (Captex 300), 12 ± 2 µg/mL; in data set [3] (Ethanol) it was 631 ± 7 µg/mL; in data set [3] (PEG200), 25120 ± 720 µg/mL; in data set [3] (PEG300) it was 10100 ± 3600 µg/mL; in data set [3] (Propylene glycol) it was 1610 ± 90 µg/mL. Further, the Solubility stood at 1240 ± 90 µg/mL in data set [3] (Water) and 1200 µg/mL in data set [3] (Water, listed as WHI-P131 salt).
